Paper PMC12386934, “Characteristics and Potential of KSL, KSL-W, and Dadapin-1 Antimicrobial Peptides for Preventing Infections of Orthopedic Prosthetic Devices: Identifying the Most Robust Candidate” (International Journal of Molecular Sciences, 2025)
Values after ≈ are worked out from the molar mass of the structure shown. Where a SMILES comes first, the peptide text is derived from it.

Assays:
[1] = test system: S. aureus cra4030 (SA 01); assay type: cell-based
Excerpt: (§1) The experimental scheme reported in Figure 6 helped to simplify and optimize the in vitro testing of the antibacterial activity of the different AMPs. The initial transparent microtiter plate for the determination of the minimum inhibitory concentration (MIC) by optical density (OD) measurement was conveniently used as a starting point not only for the alterative determination of the MIC by luminescence but also for the minimum bactericidal concentration (MBC) and for the minimum biofilm inhibitory concentration (MBIC), as explained below. For every test peptide, at least three independent experiments were performed on each bacterial strain per test condition (100% MHB and 20% MHB). The sole exception to this rule was when MIC values were on rare occasions found to be greater than 500 µg/mL. Under these circumstances, two consecutive experiments were performed to confirm the results. In this case, the antibacterial activity was considered insignificant and the third experiment was generally considered unnecessary.
(§2) The antibacterial properties of the test AMPs were assayed under two distinct conditions of bacterial culture: (i) with bacteria cultured in undiluted Mueller–Hinton II Broth (MHB II) and (ii) with bacteria cultured in diluted MHB II as earlier described in Campoccia et al.. Briefly, a few colonies of each bacterial strain, taken from overnight cultures on Mueller–Hinton Agar plates (MHA, PO50007A, ThermoScientific, Thermo Fisher Scientific, Segrate, Italy), were resuspended in Mueller–Hinton II Broth (MHB II, 24107, Liofilchem, Roseto degli Abruzzi, Italy), either undiluted or at a 20% dilution in deionized water. The concentration of bacteria was adjusted to approximately 10^8 CFU/mL, as estimated by optical density reading at 625 nm, using a Hewlett Packard G1103A spectrophotometer (Waldbronn, Germany). The bacterial suspension was further diluted 1:100 in 100% or 20% MHB II.
(§3) Serial 1:2 dilutions of all the test peptides were prepared in sterile deionized water starting from a stock solution of 1 mg/mL. Microtiter plates (96-Well CytoOne® Plate, CC7672-7596, Starlab S.r.l., Milano, Italy) were prepared by adding a volume of 100 µL of inoculum to 100 µL of treatment. Each AMP dilution was assayed in triplicate; each microplate included triplicate wells for the blank (100 µL of sterile distilled water and 100 µL of sterile MHB II), and 3 to 6 wells for reference control of 100% growth (100 µL of sterile deionized water and 100 µL of MHB II inoculated with the bacterium). Positive controls were performed in triplicate wells with 100 µL of a 10 mg/mL gentamicin solution (G1272, Sigma Aldrich, Milan, Italy) and with 100 µL of a solution containing 10,000 units/mL of penicillin and 10,000 µg/mL of streptomycin (penicillin–streptomycin, 15140-122, Life Technologies, Monza, Italy).
(§4) The wells of the microplate, initially used for the determination of the MIC, were rinsed twice with 220 µL of phosphate-buffered solution (PBS) to remove loosely attached and planktonic bacteria. A total of 100 µL of fresh PBS and 100 µL of Bac-Titer Glo solution (G8231, Promega Italia S.r.l., Milan, Italy) were added to each well. After a 10 min incubation, a volume of 100 µL was transferred to a new microplate for luminescence determination as described above. As a general rule, the MBIC value was identified as the concentration at which a reduction of at least a log in the metabolic activity was observed.

[2] = test system: P. aeruginosa cra4004 (PA 01); assay type: cell-based
Excerpt: as §1, §2, §3, §4

[3] = test system: S. epidermidis cra4029 (SE 02); assay type: cell-based; conditions: cra4029 (SE 02)
Excerpt: as §1, §2, §3, §4

[4] = test system: P. aeruginosa cra3840 (PA 02); assay type: cell-based; conditions: cra3840 (PA 02, 24 h)
Excerpt: as §1, §2, §3, §4

E. coli cra4038 (EC) = assay type: cell-based; conditions: cra4038 (EC)
Excerpt: as §1, §2, §3, §4

[5] = test system: S. aureus cra2198 (SA 02); assay type: cell-based; conditions: cra2198 (SA 02, 24 h)
Excerpt: as §1, §2, §3, §4

[6] = test system: E. faecalis cra4033 (EF 02); assay type: cell-based
Excerpt: as §1, §2, §3, §4

[7] = test system: P. aeruginosa cra4004 (PA 01); assay type: cell-based; remark: listed apart in the source
Excerpt: as §1, §2, §3
(§5) After a 1-day incubation at 37 °C, the MIC was determined by two distinct methods: (1) optical density measurement and (2) bioluminescence reading. In the first case, the optical density of the microtiter plates was read directly at a wavelength of 600 nm and the MIC was estimated from the curves obtained by plotting the OD measurements. For the bioluminescence reading, after gentle resuspension, 100 µL of each treated culture was transferred to a new 96-well non-treated plate (236105/237105, Life Technologies, Monza, Italy) and the metabolic activity was determined by the kit Bac-Titer Glo Microbial Cell Viability Assay (G8231, Promega Italia S.r.l, Milan, Italy). Optical density and bioluminescence were read by a Modulus II multifunction plate reader (Turner BioSystems, Sunnyvale, CA, USA) or, alternatively, by an Infinite M Plex (Tecan Group Ltd., Männedorf, Switzerland). As earlier described in [24], in the case of luminescence, the MIC was identified from the curves of growth inhibition as the first concentration leading to a 1-log reduction in bacterial growth (i.e., 90% growth inhibition). […]

[8] = test system: P. aeruginosa cra3840 (PA 02); assay type: cell-based
Excerpt: as §1, §2, §3, §5

[9] = test system: osteoblast-like MG63 cells; experiment: LDH cytotoxicity assay on osteoblast-like cells; assay type: cell-based, human; conditions: 1% Tween-20, Positive Control, 24 h, mean, SD ± 4.2%
Experimental: MG63 cells (ATCC, Rockville, MD, USA) were thawed from a frozen stock and cultured in DMEM (11885-084, Thermo Fisher Scientific, Segrate, Italy) supplemented with non-inactivated 10% fetal bovine serum (FBS, F7524, Sigma-Aldrich, Milan, Italy) and 100× Penicillin/Streptomycin solution (P/S, 10,000 units penicillin and 10 mg streptomycin/mL, P4333, Sigma-Aldrich, Milan, Italy), under standard culture conditions (i.e., at 37 °C, in a humidified atmosphere with 5% CO2). Cells were regularly subcultured 2–3 times a week by using TrypLE Select 1× (GIBCO, Thermo Fisher Scientific, Segrate, Italy).
A suspension of MG63 cells was prepared in complete DMEM at a concentration of 5 × 10^4 cells/mL. […]
Cytotoxicity was assessed by measuring the release of lactate dehydrogenase (LDH) from damaged cells by the LDH Cytotoxicity Assay (ab197004, Abcam, Cambridge, UK), strictly following the instructions of the manufacturer. […] After 10 min shaking, the plate was read in fluorescence (excitation: 535 nm; emission 587 nm) by an Infinite 200 PRO mod. M PLEX multifunction plate reader (Tecan Group Ltd., Männedorf, Switzerland). […]
Data in relative fluorescence units (RFU) from the investigation on KSL-W suppression of S. aureus cytotoxicity were processed as follows. […]

Compound | LR, Log10 reduction in bacterial metabolism for a given MBIC ([1]; cra4030 (SA 01)) [LR] | MBIC ([1]; cra4030 (SA 01, 24 h)) [µg/mL] | LR, Log10 reduction in bacterial metabolism for a given MBIC [2] [LR] | LR, Log10 reduction in bacterial metabolism for a given MBIC [3] [LR] | MBIC [4] [µg/mL] | LR, Log10 reduction in bacterial metabolism for a given MBIC (E. coli cra4038 (EC)) [LR] | MBIC [5] [µg/mL] | LR, Log10 reduction in bacterial metabolism for a given MBIC ([6]; cra4033 (EF 02)) [LR] | MBIC ([6]; cra4033 (EF 02, 24 h)) [µg/mL] | MIC [7] [µg/mL] | MIC [8] [µg/mL] | cytotoxicity (LDH, % of Lysate Control) [9] [%]
CC(C)[C@H](NC(=O)[C@H](CCCCN)NC(=O)[C@H](Cc1ccccc1)NC(=O)[C@@H](NC(=O)[C@@H](NC(=O)[C@H](CCCCN)NC(=O)[C@@H](N)CCCCN)C(C)C)C(C)C)C(=O)N[C@@H](CCCCN)C(=O)N[C@@H](Cc1ccccc1)C(=O)N[C@@H](CCCCN)C(=O)O [KSL] (H-KKVVFKVKFK-OH) | 2 | 1.95 | 3 | 2 | 3.91 | 3 | 31.25 | 2 | 250 | 3.91 (≈ 3.13 µM) | 3.91 (≈ 3.13 µM) | 
Tween-20 |  |  |  |  |  |  |  |  |  |  |  | 50.3
